From patent US6605606B1, “Solid forms of tin ethyl etiopurpurin and processes for producing such forms” (Miravant Pharmaceuticals, Inc., priority 2000, dated 2003)

Columns and labels:
[1] = Light stability of SnET2 solid forms under visible light irradiation (XRPD and HPLC); assay type: physicochemical; conditions: for XRPD Result / Impurity Levels by HPLC Peak 1 (photooxidized product) / Impurity Levels by HPLC Peak 2 / Impurity Levels by HPLC Peak 3: solid
Protocol: Comparative stability studies were performed on crystalline Form I, crystalline Form II, disordered Form II and the amorphous form. Light stability studies were carried out in a closed, black 30×16×12 inch cabinet containing two 24-inch, 20-watt fluorescent bulbs as the light source. The samples were placed approximately 10 inches from the bulbs. Each sample consisted of approximately 30-mg of SnET2 in a 1-dram vial. Samples were removed at the time intervals indicated in Table 11, analyzed by XRPD and HPLC.

[2] = Relative thermodynamic stability of crystalline forms (slurry interconversion, XRPD); assay type: physicochemical; conditions: slurrying in dichloromethane, acetone and mixtures, ambient or 50° C.
Description: Unsolvated, anhydrous, polymorphic forms of a compound differ in their free energies. A set of polymorphs may be ranked in order of thermodynamic stability under a given set of pressure and temperature conditions. […] Production of the stable form is said to occur under thermodynamic conditions. […] Phys. Chem. 22:306 (1897)]. […] Kinetic and thermodynamic conditions differ in the amount of energy utilized. While the absolute amount depends on the compound in question, relatively speaking, kinetic conditions involve lower temperatures and shorter reaction times while thermodynamic conditions involve higher temperatures and longer reaction times.
Under subdued lighting, a slurry containing a 1:1 mixture of SnET2 crystalline Form I and SnET2 crystalline Form II (100-200 mg each) in 1-3 mL of a solvent, listed in Table 13 below, was agitated in a tightly-capped tube at ambient temperature or at 50° C. The undissolved solid was collected by filtration and found, by XRPD analysis, to be crystalline Form II.

[3] = visible light (two 20-watt fluorescent bulbs, approx. 10 inches), 0 days
[4] = visible light irradiation, 0 days
[5] = visible light irradiation, 2 days
[6] = visible light irradiation, 4 days
[7] = visible light irradiation, 6 days
[8] = visible light irradiation, 8 days
[9] = visible light irradiation, 19 days
[10] = visible light irradiation, 29 days

Substance | XRPD Result [1, 3] | Impurity Levels by HPLC Peak 1 (photooxidized product) [1, 4] | Impurity Levels by HPLC Peak 2 [1, 4] | Impurity Levels by HPLC Peak 3 [1, 4] | Impurity Levels by HPLC Peak 1 (photooxidized product) [1, 5] | Impurity Levels by HPLC Peak 2 [1, 5] | Impurity Levels by HPLC Peak 3 [1, 5] | XRPD Result [1, 5] | Impurity Levels by HPLC Peak 1 (photooxidized product) [1, 6] | Impurity Levels by HPLC Peak 2 [1, 6] | Impurity Levels by HPLC Peak 3 [1, 6] | XRPD Result [1, 6] | Impurity Levels by HPLC Peak 1 (photooxidized product) [1, 7] | Impurity Levels by HPLC Peak 2 [1, 7] | Impurity Levels by HPLC Peak 3 [1, 7] | XRPD Result [1, 7] | Impurity Levels by HPLC Peak 1 (photooxidized product) [1, 8] | Impurity Levels by HPLC Peak 2 [1, 8] | Impurity Levels by HPLC Peak 3 [1, 8] | XRPD Result [1, 8] | also measured
Tin ethyl etiopurpurin [Amorphous] | Amorphous | 1.62 | 0.70 | 0.00 | 6.60 | 0.71 | 0.03 | Amorphous | 9.78 | 0.73 | 0.15 | Amorphous | 1.84 | 0.11 | 0.23 | Amorphous | 12.66 | 0.70 | 0.27 | Amorphous | rate of photoproduct formation by HPLC ([1]; exposed to visible light, compared with the other solid forms): produced more rapidly in the amorphous form than any other form; Impurity Levels by HPLC Peak 1 (photooxidized product) [1, 9]: 14.13; Impurity Levels by HPLC Peak 2 [1, 9]: 0.73; Impurity Levels by HPLC Peak 3 [1, 9]: 0.38; XRPD Result [1, 9]: Amorphous; Impurity Levels by HPLC Peak 1 (photooxidized product) [1, 10]: 18.72; Impurity Levels by HPLC Peak 2 [1, 10]: 0.76; Impurity Levels by HPLC Peak 3 [1, 10]: 0.38; XRPD Result [1, 10]: Amorphous
Tin ethyl etiopurpurin [Crystalline Form I] | Crystalline | 0.20 | 0.15 | 0.0 | 0.89 | 0.16 | 0.0 | Crystalline | 9.61 | 0.84 | 0.0 | Crystalline | 2.16 | 0.14 | 0.09 | Crystalline | 1.87 | 0.15 | 0.13 | Crystalline | Impurity Levels by HPLC Peak 1 (photooxidized product) [1, 9]: 2.39; Impurity Levels by HPLC Peak 2 [1, 9]: 0.34; Impurity Levels by HPLC Peak 3 [1, 9]: 0.17; XRPD Result [1, 9]: Crystalline; Impurity Levels by HPLC Peak 1 (photooxidized product) [1, 10]: 4.47; Impurity Levels by HPLC Peak 2 [1, 10]: 0.11; Impurity Levels by HPLC Peak 3 [1, 10]: 0.21; XRPD Result [1, 10]: Crystalline
Tin ethyl etiopurpurin [Disordered Form II] | Disordered FII | 0.65 | 0.10 | 0.19 | 1.24 | 0.13 | 0.19 | Disordered FII | 1.98 | 0.09 | 0.27 | Disordered FII | 2.51 | 0.11 | 0.28 | Disordered FII | 1.77 | 0.12 | 0.28 | Disordered FII | Impurity Levels by HPLC Peak 1 (photooxidized product) [1, 9]: 3.54; Impurity Levels by HPLC Peak 2 [1, 9]: 0.06; Impurity Levels by HPLC Peak 3 [1, 9]: 0.32; XRPD Result [1, 9]: Disordered FII; Impurity Levels by HPLC Peak 1 (photooxidized product) [1, 10]: 4.92; Impurity Levels by HPLC Peak 2 [1, 10]: 0.10; Impurity Levels by HPLC Peak 3 [1, 10]: 0.51; XRPD Result [1, 10]: Disordered FII
Tin ethyl etiopurpurin [Crystalline Form II] | Crystalline | 0.00 | 0.23 | 0.00 | 0.44 | 0.23 | 0.04 | Crystalline | 0.56 | 0.24 | 0.09 | Crystalline | 0.82 | 0.21 | 0.10 | Crystaliine | 0.96 | 0.21 | 0.15 | Crystalline | relative (thermodynamic) stability of crystalline forms [2]: thermodynamically more stable form; relative (thermodynamic) stability of crystalline forms ([2]; listed as crystalline Form II): more stable than crystalline Form I; Impurity Levels by HPLC Peak 1 (photooxidized product) [1, 9]: 1.12; Impurity Levels by HPLC Peak 2 [1, 9]: 0.18; Impurity Levels by HPLC Peak 3 [1, 9]: 0.14; XRPD Result [1, 9]: Crystalline; Impurity Levels by HPLC Peak 1 (photooxidized product) [1, 10]: 1.68; Impurity Levels by HPLC Peak 2 [1, 10]: 0.17; Impurity Levels by HPLC Peak 3 [1, 10]: 0.11; XRPD Result [1, 10]: Crystalline
